# Test results from US11850266B2, “Cardiomyocytes and compositions and methods for producing the same” (President and Fellows of Harvard College, priority 2019, dated 2023).
# Tested on: iPSC-derived cardiomyocytes
# Assay: NanoString PanCancer Pathways Panel gene expression
# Assay type: cell-based, human
# Conditions: Torin1 200 nM 1 week, Gibco iPS-CMs, FIG. 7G
# Description: Gene expression analysis was performed using NanoString technology which employs an optical counting method of fluorescently barcoded RNA according to the manufacturer's instructions. The nCounter PanCancer Pathways Panel was selected to provide a multiplex analysis of 770 genes from several growth and cell cycle-related pathways, including cell cycle, apoptosis, Wnt, transcriptional regulation, PI3K, and TGF-β. This panel was selected to provide a multiplex analysis of pathways associated with cell cycle regulation, metabolism, quiescence and senescence. Cardiomyocytes were differentiated in a 12-well plate then cardiomyocytes were treated with Torin1 (200 nM) or vehicle (DMSO) starting ˜2 days after onset of beating for 1 week (days 9-16 for this batch). After completion of Torin1 treatment, cells were switched back to maintenance media (RPMI+B27+insulin). Beginning on day 18 of differentiation, 10% fetal bovine serum (FBS) was added to half of the wells per treatment group and FBS treatment was continued for 4 days (until day 22 of differentiation). […] Data were analyzed using nSolver 4.0 software with the Advanced Analysis Module 2.0 with normalization to internal housekeeping genes including in the panel to perform unsupervised hierarchical clustering, differential expression analyses, and pathway scoring using the R statistical package.
smiles,measurement,value
CCC(=O)N1CCN(c2ccc(-n3c(=O)ccc4cnc5ccc(-c6cnc7ccccc7c6)cc5c43)cc2C(F)(F)F)CC1 [Torin1],expression of interleukin-8 (IL8) and SPP1 (osteopontin),significant decrease in expression
